In paper PMC11635053, “Development of a homotrimeric PSMA radioligand based on the NOTI chelating platform” (EJNMMI Radiopharmacy and Chemistry, 2024):
Where two headings read alike, the source gives them in different places. Values belong to the compound of their own block, whether it stands above or below them.

How the values were obtained:
PSMA = target: T1, PSMA (Homo sapiens, UniProt Q04609); experiment: Competitive binding assay in LNCaP cells with [177Lu]Lu-PSMA-617 as radioligand; conditions: for IC50: LNCaP cells, radioligand [177Lu]Lu-PSMA-617, 2 h at r.t., read-out: IC50 (half maximum competitive inhibitory concentration)
T1 construct: host or cells: LNCaP
T1 sequence (Q04609 whole entry): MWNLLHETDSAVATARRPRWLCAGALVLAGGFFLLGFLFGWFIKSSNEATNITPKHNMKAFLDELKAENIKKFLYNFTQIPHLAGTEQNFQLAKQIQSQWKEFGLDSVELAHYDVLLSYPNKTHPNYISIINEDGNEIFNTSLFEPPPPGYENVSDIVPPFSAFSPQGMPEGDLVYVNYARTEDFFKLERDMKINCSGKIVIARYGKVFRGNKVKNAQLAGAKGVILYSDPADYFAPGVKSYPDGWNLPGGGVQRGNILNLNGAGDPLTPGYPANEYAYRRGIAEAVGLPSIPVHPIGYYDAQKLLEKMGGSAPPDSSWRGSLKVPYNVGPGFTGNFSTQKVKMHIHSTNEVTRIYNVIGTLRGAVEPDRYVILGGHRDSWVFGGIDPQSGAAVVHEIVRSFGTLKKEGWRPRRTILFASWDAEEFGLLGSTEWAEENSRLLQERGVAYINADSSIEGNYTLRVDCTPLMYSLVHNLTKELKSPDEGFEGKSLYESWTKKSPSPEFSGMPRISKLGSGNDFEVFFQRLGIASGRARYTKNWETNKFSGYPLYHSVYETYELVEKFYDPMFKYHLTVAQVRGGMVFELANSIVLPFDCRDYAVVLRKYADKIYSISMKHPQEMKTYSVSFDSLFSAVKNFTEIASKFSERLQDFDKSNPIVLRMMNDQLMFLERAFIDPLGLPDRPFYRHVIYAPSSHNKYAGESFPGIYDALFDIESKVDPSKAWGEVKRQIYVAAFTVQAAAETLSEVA
Experimental: In order to establish a structure–activity relationship, the binding affinity of the metal-free and ^natGa-complexes of the conjugates 7, 8, and 9 were determined in the PSMA-positive human prostate cancer cell line LNCaP by a competitive binding assay as previously reported using [^177Lu]Lu-PSMA-617 as the radioligand (Stemler et al. [2021]). The conjugate Glu-CO-Lys-Ahx-HBED-CC (PSMA-11) was included as the control.
The competitive binding assay was carried out using a MultiScreen®HTS Vacuum Manifold system (Merck, Germany) with 96-well filter plates. Serial dilutions of the metal-free conjugates and corresponding ^natGa complexes were prepared to obtain 7 final concentrations ranging from 0 to 1000 nM for each compound. PSMA-11 was also tested as control. Experiments were performed twice in triplicate for each compound. Freshly prepared ^177Lu-labeled PSMA-617 was used as the radioligand. A volume of 1 μL of [^177Lu]Lu-PSMA-617 stock solution (2.83 μM) was added into each tube of the dilution series (radioligand concentration 3.14 nM). For the experiment, 10^5 LNCaP cells were seeded into each well. The final volume of each well was 150 μL (100 μL cells in medium + 50 μL inhibitor in PBS). The experiment was incubated for 2 h at r.t. in a plate shaker. Then, the supernatants were removed by vacuum. Wells were furthermore washed out with ice-cold PBS (3 × 200 μL, pH 7.4). The filters were punched into tubes for the subsequent quantification of the activity in a Gamma-counter. A nonlinear regression algorithm was applied by the software GraphPad Prism to determine the specific inhibitory concentrations of 50% for the tested radiotracers.

[1] = tested on: PSMA-positive LNCaP cells; experiment: Cell uptake / internalization of 68Ga-labeled conjugates in LNCaP cells; type: cell-based, human; conditions: 1 h incubation; for Cell uptake: in words
Experimental: Next, the cellular uptake of the ^68Ga-labeled conjugates 7, 8, and 9 as well as [^68Ga]Ga-PSMA-11 was determined in PSMA-positive LNCaP cells.
LNCaP cells were seeded (10^6 cells well^−1) in poly-L-lysine coated 6-well plates 24 h before the experiment. Experiments were performed twice in triplicate for each compound. The radiolabeling solutions of [^68Ga]Ga-7, [^68Ga]Ga-8, [^68Ga]Ga-9, and [^68Ga]Ga-PSMA-11 were first diluted with PBS (pH 7.4) to a concentration of […]. 100 µL of this dilution were added to 3900 µL PBS (pH 7.4) to obtain final stock solutions of each radiolabeled compound (0.025 nmol mL^−1).
On the day of the experiment, the medium was replaced by fresh preheated medium (1.4 mL w/o blocking, 1.3 mL with blocking) and the cells incubated for 1 h at 37 °C. Next, the blocking solution was added (100 μL, 2500 pmol) to the corresponding wells. Finally, the corresponding radiolabeled conjugate (100 μL, 2.5 pmol) was added to a final assay volume of 1.5 mL well^−1. After 1 h incubation time, the supernatants were removed and the cells were washed carefully with ice-cold PBS buffer (2 × 1 mL, pH 7.4) followed by a subsequent glycine–HCl washing step (50 mM, pH 2.8, 2 × 1 mL well^−1). Cells were incubated with the glycine–HCl solution for 4 min at r.t. Next, corresponding fractions were transferred into counting tubes. Subsequently, the cells were lysed by adding NaOH (2 × 1 mL well^−1, 0.1 M) and the lysed fractions were also transferred into counting tubes. As standards, 100 µL of each radiolabeled conjugate stock solution (0.025 nmol mL^−1, 2.5 pmol) were pipetted into counting tubes containing 2 mL PBS buffer. The activity of the standards, the surface bound fractions and the internalized fractions were measured in a Gamma counter. Means were calculated and subtracted by the background. The percentages of unspecific and specific cell-surface bound and internalized activity were calculated from the standards.

[2] = tested on: patient with metastatic prostate cancer; experiment: Clinical PET/CT imaging; conditions: patient, 1 h p.i.
Experimental: PET/CT was performed approximately 1, 2, and 3 h after intravenous injection of 107 MBq of [^68Ga]Ga-9 and 1 h after injection of 113 MBq [^68Ga]Ga-PSMA-11 in a patient with metastatic prostate cancer. Whole body imaging extending from vertex to mid-femur was performed in 3D-ToF mode on a Biograph mCT 40 scanner (Siemens Medical Solutions, Knoxville, TN, USA) with an extended field of view of 21.4 cm. PET acquisition time was 3 min bed position^−1. Low-dose CT acquisition was performed for attenuation correction and anatomical localization using an X-ray tube voltage of 120 kV and a modulation of the tube current (maximal tube current: 30 mA; CARE Dose 4D software Siemens Healthineers, Erlangen, Germany) followed by reconstruction with a soft tissue reconstruction kernel (Bf37) to a slice thickness of 5 mm (increment 2–4 mm). PET emission data were additionally corrected for decay, randoms and scatter and reconstructed applying an iterative 3D ordered subset expectation maximization algorithm (3 iterations; 21 subsets) withGaussian filtering to transaxial resolution of 5 mm at full width at half maximum. The matrix size was 200 × 200 mm and the reconstructed pixel size was 5.0 mm.

[3] = tested on: LNCaP xenograft bearing mice; conditions: 1 h p.i., cited from earlier work
human serum proteins = experiment: in vitro; type: in vitro ADME; conditions: male; for Protein binding: 1 h; for fraction unbound at 1 h: Protein binding
Experimental: To determine the protein bound fraction of each trimeric radiotracer, 100 μL of the radiolabeling solution of the corresponding ^68Ga-labeled conjugate were added to preheated (37 °C) 1000 μL human serum (male, AB, Sigma Aldrich, USA) in triplicates. Samples were incubated for 1 h at 37 °C. After cooling to r.t., the samples were centrifuged utilizing molecular cutoff (30 kDa) centrifuge tubes at 4 G for 5 min at 4 °C. The filters were additionally rinsed with PBS buffer (2 × 100 μL). The background subtracted activity in the filters and the filtrates were determined in a Gamma counter and the percentage of protein bound fractions were calculated.

[4] = type: in vitro ADME; conditions: 2 h
Experimental: 100 μL of the radiolabeling solution of each ^68Ga-labeled tracer were added to preheated (37 °C) 1000 μL human serum (male, AB, Sigma Aldrich, USA) in triplicates and incubated at 37 °C. At 1 and 2 h, 100 µL aliquots were taken, mixed with 100 µL ice-cold acetonitrile, and centrifuged at 4 G for 5 min at 4 °C. The corresponding filtrates were kept on ice until HPLC analysis. The supernatants were then analyzed by radio-RP-HPLC and fractions of intact compounds were calculated from the HPLC chromatograms. (gradient 4,Gamma-ray detector: 100–900 keV, injection volume: 20 μl). tR ([^68Ga]Ga-7) = 12.1 min, tR ([^68Ga]Ga-8) = 14.4 min, tR ([^68Ga]Ga-9) = 25.2 min.

patients = conditions: cited from earlier work; for Injected activity excreted: patients, ref Kurth et al. [2018]
[5] = 2.5 pmol per 10^6 cells, 68Ga-labeled
[6] = lesions listed as 1 × prostate, 2 × lymph node metastasis

IC50 (PSMA): 264 nM
Compound: O=C(O)CC[C@H](NC(=O)N[C@@H](CCCCNC(=O)CCCCn1ccnc1CN1CCN(Cc2nccn2CCCCC(=O)NCCCC[C@H](NC(=O)N[C@@H](CCC(=O)O)C(=O)O)C(=O)O)CCN(Cc2nccn2CCCCC(=O)NCCCC[C@H](NC(=O)N[C@@H](CCC(=O)O)C(=O)O)C(=O)O)CC1)C(=O)O)C(=O)O [Compound 7, (2S,2'S,2''S)−2,2',2''-(((((1S,1'S,1''S)-((5,5',5''-(((1,4,7-triazonane-1,4,7-triyl)tris(methylene))tris(1H-imidazole-2,1-diyl))tris(pentanoyl))tris(azanediyl))tris(1-carboxypentane-5,1-diyl))tris(azanediyl))tris(carbonyl))tris(azanediyl))triglutaric acid]

IC50 (PSMA): 65 nM
Factor by which affinity is lower compared to PSMA-11 (PSMA; LNCaP competitive binding, metal-free conjugate): ~ 3
Compound: O=C(O)CC[C@H](NC(=O)N[C@@H](CCCCNC(=O)CCCCCNC(=O)CCCCn1ccnc1CN1CCN(Cc2nccn2CCCCC(=O)NCCCCCC(=O)NCCCC[C@H](NC(=O)N[C@@H](CCC(=O)O)C(=O)O)C(=O)O)CCN(Cc2nccn2CCCCC(=O)NCCCCCC(=O)NCCCC[C@H](NC(=O)N[C@@H](CCC(=O)O)C(=O)O)C(=O)O)CC1)C(=O)O)C(=O)O [Compound 8, (3S,3'S,3''S,7S,7'S,7''S)−24,24',24''-(((1,4,7-triazonane-1,4,7-triyl)tris(methylene))tris(1H-imidazole-2,1-diyl))tris(5,13,20-trioxo-4,6,12,19-tetraazatetracosane-1,3,7-tricarboxylic acid)]

IC50 (PSMA): 5.9 nM
Compound: O=C(O)CC[C@H](NC(=O)N[C@@H](CCCCNC(=O)[C@H](Cc1ccc2ccccc2c1)NC(=O)[C@H]1CC[C@H](CNC(=O)CCCCn2ccnc2CN2CCN(Cc3nccn3CCCCC(=O)NC[C@H]3CC[C@H](C(=O)N[C@@H](Cc4ccc5ccccc5c4)C(=O)NCCCC[C@H](NC(=O)N[C@@H](CCC(=O)O)C(=O)O)C(=O)O)CC3)CCN(Cc3nccn3CCCCC(=O)NC[C@H]3CC[C@H](C(=O)N[C@@H](Cc4ccc5ccccc5c4)C(=O)NCCCC[C@H](NC(=O)N[C@@H](CCC(=O)O)C(=O)O)C(=O)O)CC3)CC2)CC1)C(=O)O)C(=O)O [Compound 9]
Cell internalization [1, 5]: 17.8 ± 2.5%

IC50 (PSMA): 18.5 nM
Compound: O=C(O)CCc1ccc(O)c(CN(CCN(CC(=O)O)Cc2cc(CCC(=O)NCCCCCC(=O)NCCCC[C@H](NC(=O)N[C@@H](CCC(=O)O)C(=O)O)C(=O)O)ccc2O)CC(=O)O)c1 [PSMA-11, Glu-CO-Lys-Ahx-HBED-CC, reference compound]

SUVpeak in the parotid gland [2]: 37.0
SUVpeak in the submandibular gland [2]: 31.6
SUVpeak kidneys [2]: 126.3
SUVpeak liver [2]: 8.5
SUVpeak, first target lesion [2, 6]: 35.3
SUVpeak, second target lesion [2, 6]: 16.3
SUVpeak, third target lesion [2, 6]: 20.6
Compound: O=C([O-])CN(CCN(CC(=O)[O-])Cc1cc(CCC(=O)NCCCCCC(=O)NCCCC[C@H](NC(=O)N[C@@H](CCC(=O)O)C(=O)O)C(=O)O)ccc1[O-])Cc1cc(CCC(=O)O)ccc1[O-].[68Ga+3].[OH3+] [[^68Ga]Ga-PSMA-11, reference compound]
Cell internalization [1, 5]: 5.2 ± 0.2%
Cell-surface bound fraction [1, 5]: 4.5 ± 0.2%
Kidney uptake ([3]; ref Benešová et al. ([2015])): 187.4 ± 25.3 % IA g^−1
Tumor uptake ([3]; ref Benešová et al. ([2015])): 10.58 ± 4.5 % IA g^−1
Tumor-to-kidney ratio ([3]; ref Benešová et al. ([2015])): 0.06
Kidney uptake ([3]; ref Eder et al. ([2012])): 139.4 ± 21.4 % IA g^−1
Liver uptake ([3]; ref Eder et al. ([2012])): 0.87 ± 0.05 % IA g^−1
Tumor uptake ([3]; ref Eder et al. ([2012])): 7.70 ± 1.45 % IA g^−1
Tumor-to-kidney ratio ([3]; ref Eder et al. ([2012])): 0.06
Tumor-to-liver ratio ([3]; ref Eder et al. ([2012])): 8.85

IC50 (PSMA): 450 nM
Compound: O=C(O)CC[C@H](NC(=O)N[C@@H](CCCCNC(=O)CCCCn1ccnc1CN1CCN(Cc2nccn2CCCCC(=O)NCCCC[C@H](NC(=O)N[C@@H](CCC(=O)O)C(=O)O)C(=O)O)CCN(Cc2nccn2CCCCC(=O)NCCCC[C@H](NC(=O)N[C@@H](CCC(=O)O)C(=O)O)C(=O)O)CC1)C(=O)O)C(=O)O [^nat/68Ga-7, metal not drawn]
Cell uptake [1]: negligible
Protein binding (human serum proteins): 63.8 ± 4.0%
fraction unbound at 1 h (human serum proteins): ~0.36
Metabolic stability in human serum [4]: no significant degradation

IC50 (PSMA): 90 nM
Compound: O=C(O)CC[C@H](NC(=O)N[C@@H](CCCCNC(=O)CCCCCNC(=O)CCCCn1ccnc1CN1CCN(Cc2nccn2CCCCC(=O)NCCCCCC(=O)NCCCC[C@H](NC(=O)N[C@@H](CCC(=O)O)C(=O)O)C(=O)O)CCN(Cc2nccn2CCCCC(=O)NCCCCCC(=O)NCCCC[C@H](NC(=O)N[C@@H](CCC(=O)O)C(=O)O)C(=O)O)CC1)C(=O)O)C(=O)O [^nat/68Ga-8, metal not drawn]
Cell internalization [1, 5]: 0.08 ± 0.02%
Cell uptake [1]: negligible
Protein binding (human serum proteins): 68.2 ± 1.5%
fraction unbound at 1 h (human serum proteins): ~0.35
Metabolic stability in human serum [4]: no significant degradation

Compound: [^177Lu]Lu-PSMA-617
Kidney uptake ([3]; ref Benešová et al. ([2015])): 137.2 ± 77.8 % IA g^−1
Liver uptake ([3]; ref Benešová et al. ([2015])): 0.22 ± 0.08 % IA g^−1
Tumor uptake ([3]; ref Benešová et al. ([2015])): 11.20 ± 4.17 % IA g^−1
Tumor-to-kidney ratio ([3]; ref Benešová et al. ([2015])): 0.08
Tumor-to-liver ratio ([3]; ref Benešová et al. ([2015])): 50.91
Patients that may not respond to therapy (patients; PSMA targeted radioligand therapy, ref Kratochwil et al. [2016]): more than 30%
Injected activity excreted (patients; by 12 h): ~70%
Injected activity excreted (patients; within 4 h of administration): 50%
